Legend:
Serotonin 1 Receptor = experiment: NovaScreen receptor binding, Serotonin 1 Receptor
Experimental: (§1) A number of compounds were sent to NovaScreen® (5200 Freeport Centre, Baltimore, Md. 21224) to determine the compounds' receptor selectivity. […] Compounds which show inhibition of 50% or greater at an assay concentration of 10 μM to 1 nM are considered active or very potent, respectively. In the table below a number of compounds show significant results for two or more of the significant receptors.

Alpha 2 Receptor = experiment: NovaScreen receptor binding, Alpha 2 Receptor
Experimental: as §1

Serotonin 2 Receptor = Serotonin 2 Receptor (Homo sapiens, UniProt P28223); experiment: NovaScreen receptor binding, Serotonin 2 Receptor; conditions: for inhibition at 10 µM: 10^-5 M (10 μM); for inhibition at 0.1 µM: 10^-7 M (100 nM); for inhibition at 0.001 µM: 10^-9 M (1 nM)
Experimental: as §1

rabbit eye = experiment: IOP recovery rate assay (hypertonic sodium chloride infusion, topical drug); assay type: in vivo; conditions: 0.6% solution
Experimental: The "IOP recovery rate assay" as reported by Vareilles and Lotti (Ophthalmic Res., 13, 72-79, 1981) is used.
IOP was measured at 15, 25, 35, 45, 60, 75, 90 and 120 minutes with an applanation pneumatonometer (Digilab Model D). Fifty uL of a 0.6% solution of N,N'-dimethyl-2-phenylethylamine containing a pH 7.4 phosphate buffer was administered topically to the right eye 60 minutes before the start of the sodium chloride infusion. Control animals were given vehicle without drug.
The hypertonic sodium chloride solution causes a temporary decline in IOP which returns to normal IOP in about 90 minutes if no drug is administered. IOP gradually returns to normal at a constant rate buy more slowly if the in vivo secretion rate of aqueous humor is reduced due to the presence of drug. The return to normal IOP is measured from the positive linear slope which is a measure of the constant rate of return to normal IOP and begins at about 30-45 minutes after starting the NaCl infusion. A comparison of the slope with and without the addition of N=2, R&R'=CH3 to the rabbit eye is expressed as "% reduction".

eye = conditions: previously disclosed by applicants; 0.2% to about 0.6% w/v preferred; cited from earlier work

Serotonin 2 Receptor, sequence (P28223 whole entry): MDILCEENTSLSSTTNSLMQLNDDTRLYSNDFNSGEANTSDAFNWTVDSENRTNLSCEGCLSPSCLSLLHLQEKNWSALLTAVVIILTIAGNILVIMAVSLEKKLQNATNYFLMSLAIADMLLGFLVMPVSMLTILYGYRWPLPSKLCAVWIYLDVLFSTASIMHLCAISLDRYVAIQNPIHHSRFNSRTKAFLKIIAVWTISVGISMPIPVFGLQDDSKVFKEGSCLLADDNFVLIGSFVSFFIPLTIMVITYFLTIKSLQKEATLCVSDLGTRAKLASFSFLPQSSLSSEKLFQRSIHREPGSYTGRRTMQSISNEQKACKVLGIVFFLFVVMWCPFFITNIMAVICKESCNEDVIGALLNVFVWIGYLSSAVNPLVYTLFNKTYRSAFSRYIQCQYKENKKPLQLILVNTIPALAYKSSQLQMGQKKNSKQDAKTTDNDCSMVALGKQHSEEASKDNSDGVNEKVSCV

SMILES | % INHIBITION (Serotonin 1 Receptor; 10^-5 M (10 μM)) [%] | % INHIBITION (Serotonin 1 Receptor; 10^-7 M (100 nM)) [%] | % INHIBITION (Serotonin 1 Receptor; 10^-9 M (1 nM)) [%] | % INHIBITION (Alpha 2 Receptor; 10^-5 M (10 μM)) [%] | % INHIBITION (Alpha 2 Receptor; 10^-7 M (100 nM)) [%] | % INHIBITION (Alpha 2 Receptor; 10^-9 M (1 nM)) [%] | inhibition at 10 µM (Serotonin 2 Receptor) [%] | inhibition at 0.1 µM (Serotonin 2 Receptor) [%] | inhibition at 0.001 µM (Serotonin 2 Receptor) [%] | average slope of return to normal IOP (rabbit eye; 50 uL topical to right eye 60 min before NaCl infusion, n = 12 rabbit eyes, ± standard deviation, vehicle only 0.109 ± 0.0268) | % Reduction of slope vs vehicle (rabbit eye; topical, n = 12 rabbit eyes) [%] | in vivo antiglaucoma activity (rabbit eye; topical, rabbit eye) | tear stimulation (eye)
CCN(C)Cc1ccccc1 [n = 1, R = CH3, R' = C2 H5] | 17.2 | 6.2 | 5.7 | 53.0 | 4.7 | 2.2 |  |  |  |  |  |  | 
CCN(CCc1ccccc1)C1CCCCC1.Cl [n = 2, R = C2 H5, R' = cyclohexyl, N-cyclohexyl-N-ethyl 2-phenylethylamine hydrochloride] | 12.2 | -4.0 | 2.6 |  |  |  | 48.9 | 4.7 | -11.2 |  |  |  | 
CCCCCCN(C)CCc1ccccc1 [n = 2, R = CH3, R' = n-hexyl] | 55.0 | 30.0 | 10.3 | 95.7 | 6.7 | 1.6 | 92 | 9.6 | 2.3 |  |  |  | 
CN(C)CCc1ccccc1 [n = 2, R&R' = CH3, N,N-dimethyl-2-phenylethylamine] | 82.3 | 70.6 | 62.3 | 96.7 | 15.3 | 8.1 | 46.9 | 10.7 | -2.1 | 0.066 ± 0.027 | 38.5 | potent in vivo antiglaucoma drug | ophthalmically effective tear stimulant
CN(CCCc1ccccc1)C1CCCCC1 [n = 3, R = methyl, R' = cyclohexyl] | 5.7 | -10.2 | -6.3 | 81.0 | 9.3 | 3.3 | 82.1 | -8 | -15.4 |  |  |  | 
